Laboratory results published in patent publication US7550459B2, “Tetrahydroquinoline analogues as muscarinic agonists” (Acadia Pharmaceuticals, Inc., priority 2001, dated 2009).
Like-named read-outs stand apart in the source and are kept apart here.

Legend:
M1 muscarinic receptor = target: T1, M1 muscarinic receptor (Homo sapiens, UniProt P11229); assay: Receptor Selection and Amplification (R-SAT) assay, cloned M1 receptor; format: cell-based; design: M1 Eff: scale not given here; details: for Emax: read-out: m1 % Efficacy
T1 construct: expressed in transfected cells
T1 sequence (P11229 1-460): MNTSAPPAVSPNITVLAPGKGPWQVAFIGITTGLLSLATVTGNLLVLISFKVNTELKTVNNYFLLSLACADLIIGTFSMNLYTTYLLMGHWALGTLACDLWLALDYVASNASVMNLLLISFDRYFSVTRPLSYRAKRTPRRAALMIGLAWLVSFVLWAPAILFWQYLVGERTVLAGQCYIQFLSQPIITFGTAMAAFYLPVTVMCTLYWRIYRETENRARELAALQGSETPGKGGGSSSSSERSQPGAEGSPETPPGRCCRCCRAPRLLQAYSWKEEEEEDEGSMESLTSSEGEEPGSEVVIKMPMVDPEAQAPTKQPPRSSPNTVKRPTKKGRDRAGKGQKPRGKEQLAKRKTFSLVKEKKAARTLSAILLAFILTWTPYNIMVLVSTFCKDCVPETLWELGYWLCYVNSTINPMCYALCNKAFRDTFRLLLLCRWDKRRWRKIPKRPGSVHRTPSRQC
Source text: (§1) The EC50 for an agonist is intended to denote the concentration of a compound needed to achieve 50% of a maximal response seen in an in vitro assay such as R-SAT. For inverse agonists, EC50 is intended to denote the concentration of a compound needed to achieve 50% inhibition of an R-SAT response from basal, no compound, levels.
(§2) A particularly convenient functional assay system is the receptor selection and amplification assay (R-SAT assay) in U.S. Pat. No. 5,707,798, which describes a method of screening for bioactive compounds by utilizing the ability of cells transfected with receptor DNA, e.g., coding for the different muscarinic subtypes, to amplify in the presence of a ligand of the receptor. Cell amplification is detected as increased levels of a marker also expressed by the cells.
(§3) Receptor Selection and Amplification (R-SAT) assays were carried out using the cloned M1-M5 receptors essentially as described in: Brauner-Osborne H, Brann M R. Pharmacology of muscarinic acetylcholine receptor subtypes (m1-m5): high throughput assays in mammalian cells. Eur J Pharmacol Jan. 4, 1996;295(1):93-102, and Spalding T A, Trotter C, Skjaerbaek N, Messier T L, Currier E A, Burstein E S, Li D, Hacksell U, Brann M R. Discovery of an ectopic activation site on the M(1) muscarinic receptor. Mol Pharmacol. 2002 June;61(6):1297-302.

M2 muscarinic receptor = target: T2, M2 muscarinic receptor (Homo sapiens, UniProt P08172); assay: Receptor Selection and Amplification (R-SAT) assay, cloned M2 receptor; format: cell-based; design: M2 Eff: scale not given here; details: for Emax: read-out: m2 % Efficacy
T2 construct: expressed in transfected cells
T2 sequence (P08172 1-466): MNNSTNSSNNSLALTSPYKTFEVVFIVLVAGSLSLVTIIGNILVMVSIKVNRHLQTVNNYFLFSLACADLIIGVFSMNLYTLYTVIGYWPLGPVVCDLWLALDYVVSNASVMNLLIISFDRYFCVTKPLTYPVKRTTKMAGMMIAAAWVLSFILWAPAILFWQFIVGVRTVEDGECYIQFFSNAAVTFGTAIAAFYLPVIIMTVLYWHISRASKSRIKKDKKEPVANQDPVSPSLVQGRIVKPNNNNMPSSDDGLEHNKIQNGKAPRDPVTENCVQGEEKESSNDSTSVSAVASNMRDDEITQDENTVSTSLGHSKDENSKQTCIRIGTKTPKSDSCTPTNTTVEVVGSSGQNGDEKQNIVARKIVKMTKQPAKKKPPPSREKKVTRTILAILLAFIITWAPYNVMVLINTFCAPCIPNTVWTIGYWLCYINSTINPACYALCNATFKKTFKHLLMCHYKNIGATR
Source text: as §1, §2, §3

M3 muscarinic receptor = target: T3, M3 muscarinic receptor (Homo sapiens, UniProt P20309); assay: Receptor Selection and Amplification (R-SAT) assay, cloned M3 receptor; format: cell-based
T3 construct: expressed in transfected cells
T3 sequence (P20309 whole entry): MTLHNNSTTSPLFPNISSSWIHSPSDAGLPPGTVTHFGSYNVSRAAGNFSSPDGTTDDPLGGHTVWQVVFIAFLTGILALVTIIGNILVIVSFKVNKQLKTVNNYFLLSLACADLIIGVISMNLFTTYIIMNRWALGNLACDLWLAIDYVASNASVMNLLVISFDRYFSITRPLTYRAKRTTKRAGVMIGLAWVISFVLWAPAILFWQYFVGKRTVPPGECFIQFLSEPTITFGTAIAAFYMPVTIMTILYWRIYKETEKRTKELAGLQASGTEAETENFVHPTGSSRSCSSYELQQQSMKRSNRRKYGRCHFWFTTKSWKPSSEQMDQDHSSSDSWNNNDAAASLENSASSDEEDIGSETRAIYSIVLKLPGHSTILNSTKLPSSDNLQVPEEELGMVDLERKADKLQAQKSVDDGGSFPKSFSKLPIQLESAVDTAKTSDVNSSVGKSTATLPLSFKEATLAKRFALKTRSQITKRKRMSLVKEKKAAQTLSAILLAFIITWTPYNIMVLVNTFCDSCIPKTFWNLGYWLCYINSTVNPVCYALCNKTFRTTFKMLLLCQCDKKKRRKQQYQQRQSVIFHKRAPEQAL
Source text: as §1, §2, §3

M4 muscarinic receptor = target: T4, M4 muscarinic receptor (Homo sapiens, UniProt P08173); assay: Receptor Selection and Amplification (R-SAT) assay, cloned M4 receptor; format: cell-based; details: R-SAT, cloned m4 receptor; for Emax: read-out: m4 % Efficacy; for EC50: read-out: m4 pEC50 (converted)
T4 construct: expressed in transfected cells
T4 sequence (P08173 1-479): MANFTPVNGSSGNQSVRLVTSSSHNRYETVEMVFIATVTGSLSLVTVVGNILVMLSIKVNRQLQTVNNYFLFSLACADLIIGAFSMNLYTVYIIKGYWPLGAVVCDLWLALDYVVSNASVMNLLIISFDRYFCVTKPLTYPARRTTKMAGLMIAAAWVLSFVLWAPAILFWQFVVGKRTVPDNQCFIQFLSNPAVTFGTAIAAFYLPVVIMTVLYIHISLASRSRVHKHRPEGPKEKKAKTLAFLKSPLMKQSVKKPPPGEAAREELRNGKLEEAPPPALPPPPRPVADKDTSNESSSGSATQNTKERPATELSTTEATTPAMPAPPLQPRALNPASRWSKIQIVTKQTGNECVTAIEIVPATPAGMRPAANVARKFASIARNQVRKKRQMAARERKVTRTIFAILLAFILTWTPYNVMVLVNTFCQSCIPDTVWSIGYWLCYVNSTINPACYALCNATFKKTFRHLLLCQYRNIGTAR
Source text: as §1, §2, §3

M5 muscarinic receptor = target: T5, M5 muscarinic receptor (Homo sapiens, UniProt P08912); assay: Receptor Selection and Amplification (R-SAT) assay, cloned M5 receptor; format: cell-based; details: for Emax: read-out: m5 % Efficacy; for EC50: read-out: m5 pEC50 (converted)
T5 construct: expressed in transfected cells
T5 sequence (P08912 1-532): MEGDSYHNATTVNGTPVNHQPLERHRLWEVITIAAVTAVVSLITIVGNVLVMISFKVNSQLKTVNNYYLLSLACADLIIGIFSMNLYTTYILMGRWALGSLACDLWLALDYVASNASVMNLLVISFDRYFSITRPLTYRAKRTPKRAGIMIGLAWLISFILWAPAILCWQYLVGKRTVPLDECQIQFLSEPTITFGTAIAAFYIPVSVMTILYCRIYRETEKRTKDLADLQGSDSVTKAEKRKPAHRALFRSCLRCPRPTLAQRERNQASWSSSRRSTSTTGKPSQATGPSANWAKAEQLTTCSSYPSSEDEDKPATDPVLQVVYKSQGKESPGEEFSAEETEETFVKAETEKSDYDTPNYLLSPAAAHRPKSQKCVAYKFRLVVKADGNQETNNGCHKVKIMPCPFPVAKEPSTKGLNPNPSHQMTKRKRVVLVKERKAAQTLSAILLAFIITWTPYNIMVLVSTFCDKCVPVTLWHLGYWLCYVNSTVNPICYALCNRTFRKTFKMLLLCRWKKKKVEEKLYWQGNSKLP
Source text: as §1, §2, §3

[1] = some AChE inhibitors, such as tacrine; cited from earlier work
[2] = R-SAT, second table (COMPOUND ID series)
[3] = R-SAT, second table (COMPOUND ID series), read-out: M1 pEC50 (converted)
[4] = R-SAT, second table (COMPOUND ID series), read-out: M2 pEC50 (converted)
[5] = R-SAT, second table (COMPOUND ID series), read-out: M3 pEC50 (converted)
[6] = M1 pEC50, R-SAT, second table (COMPOUND ID series)
[7] = M2 pEC50, R-SAT, second table (COMPOUND ID series)
[8] = R-SAT, cloned m1 receptor, read-out: m1 pEC50 (converted)
[9] = R-SAT, cloned m2 receptor, read-out: m2 pEC50 (converted)

Structure (SMILES) | Emax (M1 muscarinic receptor; R-SAT, cloned m1 receptor) [%] | EC50 (M1 muscarinic receptor; [8]) [nM] | Emax (M4 muscarinic receptor) [%] | EC50 (M4 muscarinic receptor) [nM] | Emax (M5 muscarinic receptor) [%] | EC50 (M5 muscarinic receptor) [nM] | M1 Eff (M1 muscarinic receptor; [2]) | M2 Eff (M2 muscarinic receptor; [2]) | M3 Eff (M3 muscarinic receptor; [2]) | EC50 (M1 muscarinic receptor; [6]) [nM] | EC50 (M2 muscarinic receptor; [7]) [nM] | EC50 (M3 muscarinic receptor) [nM] | further results
CC(CN1CCC(OCC2CC2)CC1)CN1C(=O)COc2ccccc21 (racemic) [Compound 00262273, (R,S)-4-[3-(4-Cyclopropylmethoxypiperidin-1-yl)-2-methylpropyl]-4H-benzo[1,4]oxazin-3-one] | – | – | – | – | – | – | 155 | 98 | 35 | – | – | – | EC50 (M1 muscarinic receptor; [3]): 25.1 nM; EC50 (M2 muscarinic receptor; [4]): 794 nM; EC50 (M3 muscarinic receptor; [5]): 1580 nM
CCON=C1CC2CCC(C1)N2C[C@@H](C)CN1C(=O)COc2ccccc21 (single isomer, unassigned) [Compound 00261435] | – | – | – | – | – | – | 121 | 128 | 82.8 | 3.98 | 79.4 | 631 | –
CCOCCC1CC2CCC(C1)N2CC(C)CN1C(=O)COc2ccccc21 (single isomer, unassigned) [Compound 00263201] | – | – | – | – | – | – | 126 | 52 | 30 | 1 | 79.4 | 158 | –
CCCCC1CCN(CCCN2C(=O)COc3ccc(C)cc32)CC1 [Compound 64LHY89-6, 4-[3-(4-Butyl-piperidin-1-yl)-propyl]-6-methyl-4H-benzo[1,4]oxazin-3-one] | 80 | 39.8 | 50 | 316 | 48 | 631 | – | – | – | – | – | – | Emax (M2 muscarinic receptor; R-SAT, cloned m2 receptor): 35%; EC50 (M2 muscarinic receptor; [9]): 631 nM
C[C@H](CN1CCC(OCC2CC2)CC1)CN1C(=O)COc2ccccc21 [Compound 00262908, 4-[(R)-3-(4-Cyclopropylmethoxypiperidin-1-yl)-2-methylpropyl]-4H-benzo[1,4]oxazin-3-one] | – | – | – | – | – | – | 126 | 103 | 74 | – | – | – | EC50 (M1 muscarinic receptor; [3]): 12.6 nM; EC50 (M2 muscarinic receptor; [4]): 631 nM; EC50 (M3 muscarinic receptor; [5]): 2510 nM
C[C@@H](CN1C(=O)COc2ccccc21)CN1[C@@H]2CC[C@H]1C[C@@H](OCC1CC1)C2 [Compound 00262909, (R)-4-[3-(3a -Cyclopropylmethoxy-8-azabicyclo[3.2.1]oct-8-yl)-2-methylpropyl]-4H-benzo[1.4]oxazin-3-one] | – | – | – | – | – | – | 137 | 124 | 52 | 2.51 | 39.8 | 398 | –
Nc1c2c(nc3ccccc13)CCCC2 [tacrine] | – | – | – | – | – | – | – | – | – | – | – | – | patients with elevated liver transaminases (significant hepatotoxicity) [1]: about 30%

Further lines, with some results ahead:

Emax (M1 muscarinic receptor; R-SAT, cloned m1 receptor) [%] | EC50 (M1 muscarinic receptor; [8]) [nM] | Emax (M4 muscarinic receptor) [%] | EC50 (M4 muscarinic receptor) [nM] | Emax (M5 muscarinic receptor) [%] | EC50 (M5 muscarinic receptor) [nM] | Structure (SMILES) | M1 Eff (M1 muscarinic receptor; [2]) | M2 Eff (M2 muscarinic receptor; [2]) | M3 Eff (M3 muscarinic receptor; [2]) | EC50 (M1 muscarinic receptor; [6]) [nM] | EC50 (M2 muscarinic receptor; [7]) [nM] | EC50 (M3 muscarinic receptor) [nM] | further results
69 | 158 | 51 | 2000 | 38 | 631 | CCCCC1CCN(CCCN2CCOc3ccc(CC)cc32)CC1 [Compound 64LHY91-5, 4-[3-(4-Butyl-piperidin-1-yl)-propyl]-6-ethyl-3,4-dihydro-2H-benzo[1,4]oxazine] | – | – | – | – | – | – | –
76 | 79.4 | – | – | 37 | > 3160 | CCCCC1CCN(CCCN2C(=O)CCc3cc(OC)ccc32)CC1 [Compound 77LH22-A, 1-[3-(4-Butyl-piperidin-1-yl)-propyl]-6-methoxy-3,4-dihydro-1H-quinolin-2-one] | – | – | – | – | – | – | –
92 | – | 57 | 398 | 50 | 1260 | CCCCC1CCN(CCCN2C(=O)COc3cc(F)ccc32)CC1 [Compound 81MF763, 4-[3-(4-Butylpiperidin-1-yl)propyl]-7-fluoro-4H-benzo[1,4]oxazin-3-one] | – | – | – | – | – | – | Emax (M2 muscarinic receptor; R-SAT, cloned m2 receptor): 47%; EC50 (M2 muscarinic receptor; [9]): 251 nM
